Assay results reported in patent publication US20040162247A1, “Therapeutic agent or osteoporosis comprising an active ingredient of quercetin derivatives” (priority 2000, published 2004).

Assays:
[1] = system: ALP activity in osteoblasts (Saos-2); experiment: Alkaline phosphatase (ALP) activity in osteoblasts; type: cell-based, human; details: for ALP activity (% of control group): Saos-2, 3 days
Description: Since osteoblasts have cell specific alkaline phosphatase activity, the effect of quercetin of the invention on ALP activity in osteoblasts was evaluated as follows: the number of cells, concentration of tested agent, and culture condition were same as those used in MTT experiment of Example 1-2, and cells were harvested after 3 day-incubation. Genistein was used as a comparative agent. ALP activity was evaluated by analysing changes of OD at 405 nm result from hydrolysis of p-nitrophenylphosphate to p-nitrophenol and phosphate (see: Table 1).

[2] = system: ovariectomized rats; experiment: Complete blood count in ovariectomized rats; type: in vivo, Female SD (Sprague-Dawley) rats; details: rat, in vivo
Description: (§1) When test agents were administered, for a certain period of time before and after administration, 1.5 ml of blood was sampled from tail vein using a catheter (B.D Co.: 24 G) and subjected to complete blood count (Coulter Co.: JT) and biochemical analyses of plasma (Crone Co.: Airon® 200). During autopsy, blood was sampled from caudal venae cavae and subjected to the analyses above. And then, each sample was frozen to store for measurement of trabecular bone area of femur and examination of internal organs.
Complete blood count which reflects the condition and abnormality of the body was measured to find out abnormality in test animals caused by administrtion of agents. That is, to find out changes in hematopoiesis of test rats, measured were red blood cell (RBC) count, concentration of hemoglobin (Hb) and hematocrit (Ht) of-blood samples obtained from the rats prior to operation and the rats 10 weeks after administrating agents following operation, and to find out changes in immune system such as inflammation and necrosis of tissues, measured were white blood cell count, lymphocyte count, monocyte count, and granulocyte count (see: Table 7).

[3] = system: ovariectomized rats; experiment: Trabecular bone area of lumbars in ovariectomized rats;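 for Change Rate (%) of TBA of lumbars, of control group: control group rats were ovariectomized and are not the sham group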; type: in vivo, Female SD (Sprague-Dawley) rats; details: OVX rats, 9 weeks i.p. (E2 1 μg/kg/day; quercetin, genistein 10 mg/kg/day); for Change Rate (%) of TBA of lumbars, of control group: control group = 100
Description: (§2) Trabecular bone area (TBA) of lumbar and tibia removed from the rats of each group which was treated with various agents for 9 weeks were measured as follows: that is, using a digitalizer of quantitative image analysis system (Wild Leitz Co.), image of each trabecula was obtained on computer monitor by drawing a contour of the trabecula, and then, using a computer, calculated were average areas of trabeculae within a rectangle of 2×10^6 μm^2 area wherein the width is about ⅔ of the length of growth plate which located underneath of growth plate at proximity of tibia. Also, following the number of trabeculae within the rectangle were obtained, average area was multiplied by the number of trabeculae to obtain trabecular bone area of each sample bone, which was analyzed statistically (see: Table 5).
TBAs of lumbars removed from the animal treated with test agents for 9 weeks were measured employing the same method above (see: Table 6).

[4] = system: human osteoblast-like cell line Saos-2; experiment: Cell proliferation of Saos-2 cells, MTT method; type: cell-based; details: for MTT assay (% of control group): Saos-2, 3 days
Description: Saos-2 cell line which has similar properties to osteoblasts was obtained from Korean Cell Line Bank affiliated to the Cancer Research Institute of School of Medicine, Seoul National University.
Saos-2 cells were seeded in a RPMI 1640 medium (Gibco BRL, U.S.A.) supplemented with 10% (v/v) FBS, 100 unit/ml penicillin, 100 gg/ml streptomycin and grown to form a monolayer in an incubator at 37° C. under an environment of 5% (v/v) CO2 and saturated humidity. The culture was fed with fresh medium 2 to 3 times a week and subcultured once a week using 0.25% (w/v) trypsin.
Saos-2 cells were distributed into a 96-well plate (20,000 cells/well) and quercetin in 1% DMSO was added to a final concentration of 10-2 to 10^−9 mg/ml, 6 wells per each concentration. As a control group, cells without quercetin were used, and as a comparative group, the cells treated with various concentrations of genistein, being studied as a therapeutic agent for osteoporosis, were used. Cells were grown in an incubator at 37° C. for 3 days and incubated 4 more hours under the same condition after adding MTT (3-[4,5-dimethylthiazol-2-yl]-2,5-diphenyltetrazolium bromide, Triazolyl Blue) to a concentration of 0.05 mg/ml. Then, purple colored for-mazan formed in proportion to the number of viable cells was dissolved in DMSO and measured OD at 550 nm employing ELISA reader.
Cell proliferation rate (%) was evaluated by calculating the ratio of the OD of quercetin added well to the OD of control well, wherein, average value of ODs from 6 wells treated with the same concentration of quercetin was employed (see: Table 1).
cell proliferation rate (%)={(average value of OD at 550 nm of quercetin-treated wells—average value of OD at 550 nm of empty wells)/average value of OD at 550 nm of control wells}×100

[5] = system: ovariectomized rats; experiment: Biochemical parameters in plasma of ovariectomized rats; type: in vivo, Female SD (Sprague-Dawley) rats; details: rat, in vivo
Description: as §1
Since blood reflects the condition of body, safety of quercetin in the body was evaluated by measuring biochemical parameters: that is, blood samples were obtained from the rat prior to operation, one week after operation, and 10 weeks after operation, and measured were levels of alkaline phosphatase (ALP), calcium, inorganic phosphate, blood urea nitrogen (BUN), creatinin, total cholesterol, HDL-cholesterol and LDL-cholesterol (see: Table 8).

[6] = system: ovariectomized rats; experiment: Trabecular bone area of tibia in ovariectomized rats;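 for Change Rate (%) of TBA of tibia, of control group: control group rats were ovariectomized and are not the sham group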; type: in vivo, Female SD (Sprague-Dawley) rats; details: OVX rats, 9 weeks i.p. (E2 1 μg/kg/day; quercetin, genistein 10 mg/kg/day); for Change Rate (%) of TBA of tibia, of control group: control group = 100
Description: as §2

O=c1c(O)c(-c2ccc(O)c(O)c2)oc2cc(O)cc(O)c12 [Quercetin, quercetin]
ALP activity (% of control group) ([1]; 1 × 10^−2 mg/ml): 106.1 ± 4.3 % of control group | ALP activity (% of control group) ([1]; 1 × 10^−3 mg/ml): 107.3 ± 1.5 % of control group | ALP activity (% of control group) ([1]; 1 × 10^−4 mg/ml): 113.5 ± 2.3 % of control group | ALP activity (% of control group) ([1]; 1 × 10^−5 mg/ml): 116.5 ± 3.7 % of control group | ALP activity (% of control group) ([1]; 1 × 10^−6 mg/ml): 127.2 ± 3.5 % of control group | ALP activity (% of control group) ([1]; 1 × 10^−6 mg/ml, listed as quercetin): 127 % of control group | ALP activity (% of control group) ([1]; 1 × 10^−7 mg/ml): 101.2 ± 3.1 % of control group | ALP activity (% of control group) ([1]; 1 × 10^−8 mg/ml): 104.4 ± 3.9 % of control group | ALP activity (% of control group) ([1]; 1 × 10^−9 mg/ml): 98.1 ± 0.0 % of control group | ALP activation effect relative to genistein ([1]; maximum at 1×10^−6 mg/ml (quercetin) versus 1×10^−4 mg/ml (genistein)): about 100 fold | Concentration of hemoglobin(Hb) [2]: 16.00 ± 0.30 g/dL | Granulocyte count [2]: 2.80 ± 0.30 ×10^3 cells/μl | Hematocrit(Ht) [2]: 43.62 ± 0.83% | Lymphocyte count [2]: 16.78 ± 3.52 ×10^3 cells/μl | Monocyte count [2]: 0.65 ± 0.07 ×10^3 cells/μl | Red blood cell(RBC) count [2]: 7.29 ± 0.15 ×10^6 cells/μl | White blood cell count [2]: 20.28 ± 3.77 ×10^3 cells/μl | White blood cell count, before versus after operation (in words) [2]: did not show any changes | TBA (trabecular bone area) of lumbars [3]: 87.38 ± 4.53 ×10^4 μm^2 | Change Rate (%) of TBA of lumbars, of control group [3]: 129.40 ± 6.71 % | Change Rate (%) of TBA of lumbars, of control group ([3]; listed as quercetin): 129% | Cell proliferation by MTT method versus control cells (in words) ([4]; Saos-2, 1×10^−9 to 1×10^−3 mg/ml): did not show any difference from the control cells | MTT assay (% of control group) ([4]; 1 × 10^−2 mg/ml): 108.6 ± 2.2 % of control group | MTT assay (% of control group) ([4]; 1 × 10^−2 mg/ml, listed as quercetin): 109 % of control group | MTT assay (% of control group) ([4]; 1 × 10^−3 mg/ml): 98.3 ± 0.8 % of control group | MTT assay (% of control group) ([4]; 1 × 10^−4 mg/ml): 96.5 ± 0.8 % of control group | MTT assay (% of control group) ([4]; 1 × 10^−5 mg/ml): 95.8 ± 1.1 % of control group | MTT assay (% of control group) ([4]; 1 × 10^−6 mg/ml): 96.0 ± 1.0 % of control group | MTT assay (% of control group) ([4]; 1 × 10^−7 mg/ml): 98.6 ± 1.0 % of control group | MTT assay (% of control group) ([4]; 1 × 10^−8 mg/ml): 93.9 ± 0.8 % of control group | MTT assay (% of control group) ([4]; 1 × 10^−9 mg/ml): 93.1 ± 0.8 % of control group | Concentration of ALP in plasma [5]: 232.83 ± 20.27 U/dL | Concentration of HDL-cholesterol in plasma [5]: 53.38 ± 3.14 mg/dL | Concentration of LDL-cholesterol in plasma [5]: 24.17 ± 3.13 mg/dL | Concentration of blood urea nitrogen (BUN) [5]: 17.05 ± 0.60 mg/dL | Concentration of calcium in plasma [5]: 10.73 ± 0.48 mg/dL | Concentration of creatinin in plasma [5]: 0.57 ± 0.05 mg/dL | Concentration of inorganic phosphate in plasma [5]: 6.79 ± 0.66 mg/dL | Concentration of total cholesterol in plasma [5]: 77.55 ± 5.13 mg/dL | TBA (trabecular bone area) of tibia [6]: 55.52 ± 7.68 ×10^4 μm^2 | Change Rate (%) of TBA of tibia, of control group [6]: 160.34 ± 22.17 % | Change Rate (%) of TBA of tibia, of control group ([6]; listed as quercetin): 160%
